Experimental data: patent US11541045B2, “Methods of treating cancer with farnesyltransferase inhibitors” (Kura Oncology, Inc., priority 2017, dated 2023)
Where “and” joins values, the source holds several entries; their conditions need not be identical. Equal entries are not always repeated. Entries after “also recorded” stand apart in the source; their conditions may differ.

Columns and labels:
Assay type in all cases: in vivo, human
[1] = system: relapsed and refractory AML; experiment: INT-17 trial, Phase 2, tipifarnib, analysed by CXCR4 expression; details: relapsed or refractory AML patients, highest quintile of CXCR4 expression
Procedure: (§1) Previous clinical studies with tipifarnib were performed in newly diagnosed AML in elderly patients with poor risk AML (CTEP-20, Phase 2) or relapsed and refractory AML (INT-17, Phase 2). In these studies, patient selection was not based on genetic markers. Anecdotal evidence of tipifarnib single agent activity was reported.

[2] = system: peripheral T-cell lymphoma (PTCL); experiment: Phase II clinical study of tipifarnib in relapsed or refractory PTCL patients; set-up: key to Response: PR: partial response; SD: stable disease; PD: progressive disease
Excerpt: A Phase II clinical study of tipifarnib can be conducted with the primary objective being to assess the antitumor activity of tipifarnib, in terms of Objective Response Rate (ORR) in subjects with relapsed or refractory advanced peripheral T-cell lymphoma (PTCL). Determination of objective tumor response can be performed by the International Workshop Criteria (IWC) and/or measurable cutaneous disease according to the modified Severity Weighted Assessment Tool (mSWAT). Secondary objectives can include accessing the effect of tipifarnib on rate of progression-free survival (PFS) at 1 year, duration of response (DOR), overall survival (OS); and safety and tolerability of tipifarnib.
This Phase II study investigates the antitumor activity in terms of ORR of tipifarnib in subjects with PTCL. Up to 18 eligible subjects with advanced PTCL are enrolled. The total number of patients can be extended to 30.
Subjects receive tipifarnib administered at a starting dose of 900 mg, orally with food, twice a day (bid) for 7 days in alternating weeks (Days 1-7 and 15-21) in 28 day cycles. At the discretion of the investigator, the dose of tipifarnib can be increased to 1200 mg bid if the subject has not experienced dose limiting toxicities at the 900 mg dose level. Subjects who develop serious adverse events (SAE) or ≥grade 2 treatment-emergent adverse events (TEAE) that are deemed related to tipifarnib and lasting ≥14 days will not undergo dose escalation. Stepwise 300 mg dose reductions to control treatment-related, treatment-emergent toxicities are also allowed.
In the absence of unmanageable toxicities, subjects can continue to receive tipifarnib treatment until disease progression. If a complete response is observed, therapy with tipifarnib can be maintained for at least 6 months beyond the start of response.
Tumor assessments are performed at screening and at least once every approximately 8 weeks for 6 months (cycles 2, 4, 6) and once every approximately 12 weeks (cycles 9, 12, 15, etc.) thereafter, until disease progression, starting at the end of Cycle 2. Additional tumor assessments can be conducted if deemed necessary by the Investigator. Subjects who discontinue tipifarnib treatment for reasons other than disease progression must continue tumor assessments until disease progression, withdrawal of subject's consent to study
The study was an eighteen patient Phase II study with a Simon two-stage design (11+7). Two responses were required after the first eleven evaluable patients in order to proceed to second stage. Enrollment is to be extended to thirty patients if five responses are seen in the first stage.
The dose of 900 mg b.i.d. for seven days in alternate week dosing was amended during the first stage to 600 mg b.i.d. for seven days in alternate week dosing.
Formalin-fixed, paraffin-embedded (FFPE) samples were obtained from all subjects for the analysis of gene expression using RNA Seq and of single nucleotide variation (SNV, including SNPs and mutations) using next generation sequencing (NGS). Thirteen samples passed quality control (QC) for expression analysis. Sixteen samples passed quality control for SNV analysis.
This example describes a Phase 2 study (ClinicalTrials.gov Identifier: NCT02464228) designed to investigate the antitumor activity of tipifarnib in 18 patients with relapsed or refractory PTCL, and certain results of the study.
Primary outcome measures: Objective Response Rate (ORR) by the International Workshop Criteria (IWC) and/or measurable cutaneous disease according to the modified Severity Weighted Assessment Tool (mSWAT). Secondary outcome measures include the effect of tipifarnib on rate of progression-free survival (PFS) at 1 year, duration of response (DOR); and safety and tolerability of tipifarnib.
Study Design: oral tipifarnib 300 mg twice daily (bid) on days 1-21 of 28-day treatment cycles. A Simon two-stage design for ORR. […]

[3] = system: newly diagnosed AML in elderly patients with poor risk AML; experiment: CTEP-20 trial, Phase 2, tipifarnib, analysed by CXCL12 expression
Procedure: as §1

[4] = Grade ≥3 drug-related TEAEs, % of pts

`Cn1cncc1[C@@](N)(c1ccc(Cl)cc1)c1ccc2c(c1)c(-c1cccc(Cl)c1)cc(=O)n2C` [tipifarnib] was tested, and the median survival [1] was 182 days, the “Median overall PFS” value ([2]; 5th line, all subjects with NGS data, reference and variant CXCL12 3′ UTR) was 53 days and the “HR (PFS)” value ([2]; CXCL12/CXCR4 ratio >0.200 versus ≤0.200, P=0.004) was 0.22. For the same molecule, the anemia [2, 4] was 32%, the febrile neutropenia [2, 4] was 32% and the leukopenia [2, 4] was 47%. It also gave a lymphopenia [2, 4] of 16%, a neutropenia [2, 4] of 74% and a thrombocytopenia [2, 4] of 58%. The “Safety and Tolerability” value ([2]; PTCL patients, overall statement) was “consistent with known safety profile; also recorded: generally well-tolerated”, the Response ([2]; Table 1, one line per subject 1-18, PTCL patients, 900 mg b.i.d. amended to 600 mg b.i.d., seven days in alternate weeks) was “PR (3×) and PD (11×) and SD (4×)” and the Response ([2]; Table 2, RNA Seq Experiment#1, one cell per patient (2002, 2004, 3002, 4001, 2001, 4004)) was “PD (3×) and SD (2×) and PR”. The Response ([2]; Table 3, RNA Seq Experiment#2, one cell per patient (2005, 2006, 4005, 4006, 4007, 6003, 2007)) was “PD (5×) and SD and PR”, the “median duration of durable responses” value ([2]; cohort of PTCL patients of Example II) was 11 months and the “median time to progression” value ([2]; five patients with tumor size reductions, associated with elevated CXCL12 expression (p<0.001)) was greater than 6 mo. For the same molecule, the “HR (PFS)” value ([2]; high versus low CXCL12 expression, FIG. 13A, p=0.0015) was 0.22, the “Discontinuation for Progressive Disease” value ([2]; of 17 discontinuations) was 16 n and the mPFS ([2]; patients with CXCL12 3′ UTR SNV rs2839695, N=7, first time point (FIG. 4)) was 48 days. The “median progression free survival (mPFS)” value ([2]; patients with CXCL12/CXCR4 ratio >0.200 (N=5)) was 189 days, the “median progression free survival (mPFS)” value ([2]; patients with CXCL12/CXCR4 ratio ≤0.200 (N=7)) was 51 days and the mPFS ([2]; patients with CXCL12 reference 3′ UTR (8 patients), FIG. 12A) was 133 days. The mPFS ([2]; patients with CXCL12 rs2839695, N=7, later timepoint (FIG. 6)) was 50 days, the mPFS ([2]; patients with CXCL12 variant 3′ UTR (8 with rs2839695 and 1 novel variant), FIG. 12B) was 34 days and the mPFS ([2]; patients with no SNV in the 3′ UTR of CXCL12 (reference 3′ UTR), N=8, first time point (FIG. 4)) was 189 days. The mPFS ([2]; patients with no SNV in the 3′ UTR of CXCL12, N=8, later timepoint (FIG. 6)) was 134 days, the mPFS ([2]; subjects with high CXCL12 expression, FIG. 13A) was 190 days and the “activity in KIR3DL2-expressing PTCL” value ([2]; subjects with high KIR3DL2 expression (e.g., over 1000)) was “no activity”. The mPFS ([2]; subjects with low CXCL12 expression, FIG. 13A) was 49 days, the mPFS ([3]; second CXCL12 expression tertile) was 89 days and the mPFS ([3]; third tertile (lowest level of CXCL12 expression)) was 33 days. The “median progression free survival (mPFS)” value ([3]; treatment naïve elderly, frail AML patients, highest CXCL12 expression tertile) was 431 days.
